Measured values as given in patent publication US10189818B2, “5-(5-(2-(3-aminopropdoxy)-6-methoxyphenyl)-1H-pyrazol-3-ylamino)pyrazine-2-carbonitfile (S)-lactate monohydrate” (priority 2015, dated 2019).

Key:
[1] = Solubility screen of the salts in aqueous acid solution, HPLC; type: physicochemical; settings: thermodynamic from solid, room temperature, one week
Description: Prepare an aqueous solution (approximately 0.1 M) of selected acid. Add solid 5-(5-(2-(3-aminopropoxy)-6-methoxyphenyl)-1H-pyrazol-3-ylamino)pyrazine-2-carbonitrile (20-26 mg). Agitate slurry at room temperature for one week. Measure the 5-(5-(2-(3-aminopropoxy)-6-methoxyphenyl)-1H-pyrazol-3-ylamino)pyrazine-2-carbonitrile concentration by HPLC. Aliquots (˜200 μL) are withdrawn from the suspensions through 0.45 micron Millex® PTFE filters. Dilute samples with mobile phase and analyze by HPLC. Analyze the samples with an Agilent 1100 HPLC (Instrument 800) with a Zorbax Bonus RP (75 mm×4.6 mm, 3.5 micron particle size) column, or equivalent. The mobile phase consists of 20% of a 0.1% TFA in acetonitrile mixture and 80% of a 0.1% TFA in water mixture. Instrument conditions are as follows: flow rate 1.0 mL/minute, wavelength of detection 290 nm, 3 μL injection volume, 10 minute run time, and column temperature of 30° C. Prepare a stock solution of 5-(5-(2-(3-aminopropoxy)-6-methoxyphenyl)-1H-pyrazol-3-ylamino)pyrazine-2-carbonitrile in 50/50 water/acetonitrile and dilute with 50/50 water/acetonitrile to give concentrations suitable for quantification of the solubility samples. Dilute the samples with 50/50 acetonitrile/water. Use a dilution factor of 200 for the samples. Measure the pH of each solution and analyze the solid residues by microscopy and XRPD (wet and dry) for crystallinity and crystal form.
Prepare a (S)-lactic acid aqueous solution (0.104 M, 1 mL). Add solid 5-(5-(2-(3-aminopropoxy)-6-methoxyphenyl)-1H-pyrazol-3-ylamino)pyrazine-2-carbonitrile (21.7 mg, 0.059 mmol). Agitate the slurry at room temperature for one week. Measure the 5-(5-(2-(3-aminopropoxy)-6-methoxyphenyl)-1H-pyrazol-3-ylamino)pyrazine-2-carbonitrile concentration by HPLC. Withdraw an aliquot (˜200 μL) from the suspension through 0.45 micron Millex® PTFE filters. Dilute the samples with mobile phase and analyze by HPLC. Analyze the samples with an Agilent 1100 HPLC (Instrument 800) with a Zorbax Bonus RP (75 mm×4.6 mm, 3.5 micron particle size) column, or equivalent. The mobile phase consists of 20% of a 0.1% TFA in acetonitrile mixture and 80% of a 0.1% TFA in water mixture. Instrument conditions are as follows: flow rate 1.0 mL/minute, wavelength of detection 290 nm, 3 μL injection volume, 10 minute run time, and column temperature of 30° C. Prepare a stock solution of 5-(5-(2-(3-aminopropoxy)-6-methoxyphenyl)-1H-pyrazol-3-ylamino)pyrazine-2-carbonitrile in 50/50 water/acetonitrile and dilute with 50/50 water/acetonitrile to give concentrations suitable for quantification of the solubility samples. Dilute the samples with 50/50 acetonitrile/water. Use a dilution factor of 200 for the samples. […]

[2] = Stability comparison of the salt forms (Table 2); type: physicochemical; settings: salt form comparison
[3] = Pharmacokinetic comparison after 1-hour IV infusion, plasma concentrations by LC-MS/MS; type: in vivo, male Sprague-Dawley rats; settings: rat; for concentration at 0.25 h / concentration at 0.5 h / concentration at 1 h / concentration at 1.25 h / concentration at 1.5 h / concentration at 2 h / concentration at 4 h / concentration at 8 h / concentration at 24 h: male, Sprague-Dawley, single 10 mg/kg 1-hour intravenous infusion; for concentration at 0.25 h: 0.25 hours after start of infusion; for concentration at 0.5 h: 0.5 hours after start of infusion; for concentration at 1 h: 1 hour after start of infusion; for concentration at 1.25 h: 1.25 hours after start of infusion; for concentration at 1.5 h: 1.5 hours after start of infusion; for concentration at 2 h: 2 hours after start of infusion; for concentration at 4 h: 4 hours after start of infusion; for concentration at 8 h: 8 hours after start of infusion; for concentration at 24 h: 24 hours after start of infusion; for Difference in blood plasma levels between the two salt forms (2 sample t-test, pooled error): 10 mg/kg IV infusion for 1 hour, mesylate formulated in Captisol, (S)-lactate in trehalose
Description: Evaluate the noncompartmental pharmacokinetic parameters of the methanesulfonic acid monohydrate and (S)-lactate monohydrate salts of 5-(5-(2-(3-aminopropoxy)-6-methoxyphenyl)-1H-pyrazol-3-ylamino)pyrazine-2-carbonitrile after intravenous (IV) infusion of 10 mg/kg of the methanesulfonic acid monohydrate salt (10 mg/kg, formulated in Captisol®) or of the (S)-lactate monohydrate salt (formulated in trehalose) into the femoral vein cannula of fed male Sprague-Dawley rats for 1 hour. Collect blood samples over 24 hours from 6 animals/group. Collect blood samples into tubes containing K3EDTA at 0.25, 0.5, 1, 1.25, 1.5, 2, 4, 8, and 24 hours after the start of infusion. Centrifuge the samples to obtain plasma, and freeze until analyzed. Determine plasma concentrations using a validated LC-MS/MS assay.
Dispense WFI equivalent to approximately 80% of the final batch volume. Warm the WFI to 40° C.±3° C. and transfer to the manufacturing vessel. Weigh the required amount of active pharmaceutical ingredient and after ensuring that the WFI temperature is still within the specified range, quantitatively transfer the active pharmaceutical ingredient into the manufacturing vessel while stirring. Stir until the active pharmaceutical ingredient has dissolved yielding a clear yellow solution, stirring for no longer than 30 minutes. Add trehalose and polysorbate 80 to the manufacturing vessel. Stir until dissolved. Measure the pH of the solution and adjust to pH 4.4±0.3 with lactic acid (Note: If using lactic acid 88%-92% solution, titrate slowly and cautiously as small quantities can produce large changes in pH, or prepare a 10% solution of lactic acid for pH adjustment). If necessary, and only if the pH drops below the lower limit during adjustment, add 10% NaOH solution to bring the pH back into range. Add WFI to the manufacturing vessel to bring the solution to the final batch weight which is calculated based on the desired batch volume and the density of the solution. Measure the pH of the solution and adjust, if necessary, to pH 4.4±0.3 with lactic acid or 10% NaOH. The solution is filtered through a sterile 0.22 micron PVDF membrane (Millipore Durapore®) into a sterile receiving vessel. Fill the drug product into sterile vials. Upon completion of filling, stopper and seal vials. If not dosed within about 4 hours, store all vials at −20° C.
Dispense WFI equivalent to approximately 80% of the final batch volume into the manufacturing vessel. Weigh the required amount of Captisol® and transfer to the manufacturing vessel. Stir until dissolved. Weigh the required amount of active pharmaceutical ingredient and form a slurry by adding WFI to the active pharmaceutical ingredient with swirling until wetted. Transfer the slurry to the stirring Captisol® solution. Rinse the active pharmaceutical ingredient with WFI (3×) and add the rinses to the stirring bulk solution. Stir until the active pharmaceutical ingredient has been dispersed. Stir for no longer than 60 minutes. Some particles may be visible in the manufacturing vessel after stirring for 60 minutes. Maintain the pH of the solution between 4.0-6.0. If the pH drops below the lower limit, 10% NaOH solution may be added to bring the pH into range. Add WFI to the manufacturing vessel to bring the solution to the final batch weight which is calculated based on the desired batch volume and the density of the solution. Measure the pH of the solution and adjust, if necessary, to pH 4.0-6.0 with 10% NaOH. Filter the solution through a sterile 0.22 micron PVDF membrane (Millipore Durapore®) into a sterile receiving vessel. Fill the drug product into sterile vials. Upon completion of filling, stopper and seal the vials. If not dosed within about 4 hours, store all vials at −20° C.

[4] = aqueous buffer, water solubility comparison, slurry in approx. 0.1 M aqueous acid

**Q.** For COc1cccc(OCCCN)c1-c1cc(Nc2cnc(C#N)cn2)n[nH]1.CS(=O)(=O)O.O [Methanesulfonic acid Monohydrate, 5-(5-(2-(3-aminopropoxy)-6-methoxyphenyl)-1H-pyrazol-3-ylamino)pyrazine-2-carbonitrile methanesulfonic acid monohydrate salt], which solubility at 1 week [1, 4] is on record?
**A.** 6630 µg/mL

**Q.** And the Stability [2]?
**A.** Satisfactory

**Q.** What about the concentration at 0.25 h ([3]; in vivo) of the same compound?
**A.** 1060 ng/mL

**Q.** And the concentration at 0.5 h ([3]; in vivo)?
**A.** 1100 ng/mL

**Q.** What about the concentration at 1 h ([3]; in vivo) of the same compound?
**A.** 930 ng/mL

**Q.** What about the concentration at 1.25 h ([3]; in vivo) of the same compound?
**A.** 319 ng/mL

**Q.** And the concentration at 1.5 h ([3]; in vivo)?
**A.** 249 ng/mL

**Q.** What about the concentration at 2 h ([3]; in vivo) of the same compound?
**A.** 178 ng/mL

**Q.** And the concentration at 4 h ([3]; in vivo)?
**A.** 67.5 ng/mL

**Q.** And the concentration at 8 h ([3]; in vivo)?
**A.** 30.3 ng/mL

**Q.** What about the concentration at 24 h ([3]; in vivo) of the same compound?
**A.** 3 ng/mL

**Q.** And the “Difference in blood plasma levels between the two salt forms (2 sample t-test, pooled error)” value [3]?
**A.** no significant difference

**Q.** Which results are given for COc1cccc(OCCCN)c1-c1cc(Nc2cnc(C#N)cn2)n[nH]1.C[C@H](O)C(=O)O [(S)-Lactate Monohydrate, 5-(5-(2-(3-Aminopropoxy)-6-methoxyphenyl)-1H-pyrazol-3-ylamino)pyrazine-2-carbonitrile (S)-lactate Monohydrate]?
**A.** solubility at 1 week ([1]; aqueous (S)-lactic acid solution, pH 2.46, aqueous buffer, in water, measured at a pH of 2.46, 0.104 M (S)-lactic acid): > 20000 µg/mL; solubility at 1 week ([1]; aqueous solution of the selected acid, aqueous buffer, water solubility comparison, slurry in approx. 0.1 M aqueous acid): > 20000 µg/mL; Stability [2]: Satisfactory; concentration at 0.25 h ([3]; plasma): 1110 ng/mL; concentration at 0.5 h ([3]; plasma): 1180 ng/mL; concentration at 1 h ([3]; plasma): 1140 ng/mL; concentration at 1.25 h ([3]; plasma): 405 ng/mL; concentration at 1.5 h ([3]; plasma): 283 ng/mL; concentration at 2 h ([3]; plasma): 217 ng/mL; concentration at 4 h ([3]; plasma): 73.8 ng/mL; concentration at 8 h ([3]; plasma): 28.6 ng/mL; concentration at 24 h ([3]; plasma): 2.6 ng/mL; Difference in blood plasma levels between the two salt forms (2 sample t-test, pooled error) [3]: no significant difference

**Q.** Which solubility at 1 week [1, 4] does the source give for COc1cccc(OCCCN)c1-c1cc(Nc2cnc(C#N)cn2)n[nH]1.Cl.Cl [Di-HCl, 5-(5-(2-(3-aminopropoxy)-6-methoxyphenyl)-1H-pyrazol-3-ylamino)pyrazine-2-carbonitrile di-HCl salt] here?
**A.** 107 µg/mL

**Q.** And the Stability [2]?
**A.** Unstable
